Assays:
[1] = target: T1, FKBP degron-tagged YY1 protein (Mus musculus, UniProt Q00899+Q8C7D2); assay: dTAG inducible degradation of FKBP tagged YY1 (western blot); format: cell-based
T1 construct: A clonal homozygous knock-in line expressing FKBP tagged YY1 was used for the degradation experiments; endogenous in cells; host or cells: V6.5 mES cells, clonal homozygous knock-in (repair plasmids pAW62.YY1.FKBP.knock-in.mCherry and pAW63.YY1.FKBP.knock-in.BFP)
Protocol: For the generation of the endogenously tagged lines, five hundred thousand mES cells were transfected with 2.5 ug Cas9 plasmid and 1.25 ug non-linearized repair plasmid 1 (pAW62.YY1.FKBP.knock-in.mCherry) and 1.25 ug non-linearized repair plasmid 2 (pAW63.YY1.FKBP.knock-in.BFP). Cells were sorted after 48 hours for the presence of GFP. Cells were expanded for five days and then sorted again for double positive mCherry and BFP cells. Thirty thousand mCherry+/BFP+ sorted cells were plated in a six-well plate in a 1:2 serial dilution (first well 15,000 cells, second well 7,500 cells, etc). The cells were grown for approximately one week in 2i medium and then individual colonies were picked using a stereoscope into a 96-well plate. Cells were expanded and genotyped by PCR (YY1_gPCR_3F/3R, Table S3). Clones with a homozygous knock-in tag were further expanded and used for experiments.
A clonal homozygous knock-in line expressing FKBP tagged YY1 was used for the degradation experiments. Cells were grown two passages off MEFs and then treated with dTAG-47 at a concentration of 500 nM for 24 hours.
The homozygous knock-in line expressing FKBP tagged YY1 was cultured on 2i+LIF media. Cells were treated with dTAG-47 at a concentration of 500 nM for 24 hours. After 24 hours of drug treatment, cells were washed three times with PBS and passaged onto a new plate. […]

[2] = test system: YY1-YY1 enhancer-promoter interactions; assay: H3K27ac HiChIP of enhancer-promoter interactions after YY1 degradation and washout; format: cell-based, mouse; conditions: mES cells
Protocol: HiChIP was performed as described in (Mumbach et al., 2016) with a few modifications. Ten million cells cross-linked for 10 min at room temperature with 1% formaldehyde in growth media and quenched in 0.125 M glycine. After washing twice with ice-cold PBS, the supernatant was aspirated and the cell pellet was flash frozen in liquid nitrogen and stored at −80° C.
Cross-linked cell pellets were thawed on ice, resuspended in 800 μL of ice-cold Hi-C lysis buffer (10 mM Tris-HCl pH 8.0, 10 mM NaCl, and 0.2% IGEPAL CA-630 with 1× cOmplete protease inhibitor (Roche, 11697498001)), and incubated at 4° C. for 30 minutes with rotation. Nuclei were pelleted by centrifugation at 2500 rcf for 5 min at 4° C. and washed once with 500 μL of ice-cold Hi-C lysis buffer. After removing supernatant, nuclei were resuspended in 100 μL of 0.5% SDS and incubated at 62° C. for 10 minutes. SDS was quenched by adding 335 μL of 1.5% Triton X-100 and incubating for 15 minutes at 37° C. After the addition of 50 μL of 10×NEB Buffer 2 (NEB, B7002) and 375 U of MboI restriction enzyme (NEB, R0147), chromatin was digested at 37° C. for 2 hours with rotation. Following digestion, MboI enzyme was heat inactivated by incubating the nuclei at 62° C. for 20 min. […]

HA-tagged YY1 = assay: co-immunoprecipitation from nuclear extract treated with RNase A before IP with anti-tag antibodies, western blot quantification
[3] = test system: linear DNA template containing YY1 binding sites; assay: In vitro DNA circularization assay (T4 DNA ligase); format: biochemical; conditions: 0.25 nM DNA, 0.12 μg/μL protein, 20° C.; competitor 100 nM
Protocol: First, two plasmids (pAW49, pAW79) were generated. pAW49 contains YY1 binding sites separated by ˜3.5 kb of intervening DNA. pAW79 is identical except it contains filler DNA instead of the YY1 motifs. The intervening DNA was chosen based on looking at YY1 ChIP-seq and motif distribution in mES cells to identify regions that lacked YY1 occupancy and YY1 binding motifs. The YY1 binding motifs were chosen based on successful EMSAs (Sigova et al., 2015). Approximately 200 bp of sequence was added between the binding motifs and the termini in order to provide flexibility for the termini to ligate. The plasmid was built using Gibson assembly.
Next, a PCR was run using plasmid as a template to generate a linear piece of DNA (Table S5). This PCR product was PCR purified (Qiagen 28104) and then digested with BamHI (NEB R3136) and PCR purified. The BamHI digested template was used in the ligation assay.
The ligation assay was carried out as follows. Reactions were prepared on ice in 66 μL with the following components:
BSA control: 0.25 nM DNA, 1× T4 DNA ligase buffer (NEB B0202S), H2O, 0.12 μg/μL of BSA […]
Quantification was done using Image Lab version 5.2.1 (Bio-Rad Laboratories). First, band density of the starting product and ligation product were measured. Then the percent circularized was calculated: (ligation product)/(ligation product+starting band)*100. […]

T1 sequence (Q00899 with tags, fused parts or gaps): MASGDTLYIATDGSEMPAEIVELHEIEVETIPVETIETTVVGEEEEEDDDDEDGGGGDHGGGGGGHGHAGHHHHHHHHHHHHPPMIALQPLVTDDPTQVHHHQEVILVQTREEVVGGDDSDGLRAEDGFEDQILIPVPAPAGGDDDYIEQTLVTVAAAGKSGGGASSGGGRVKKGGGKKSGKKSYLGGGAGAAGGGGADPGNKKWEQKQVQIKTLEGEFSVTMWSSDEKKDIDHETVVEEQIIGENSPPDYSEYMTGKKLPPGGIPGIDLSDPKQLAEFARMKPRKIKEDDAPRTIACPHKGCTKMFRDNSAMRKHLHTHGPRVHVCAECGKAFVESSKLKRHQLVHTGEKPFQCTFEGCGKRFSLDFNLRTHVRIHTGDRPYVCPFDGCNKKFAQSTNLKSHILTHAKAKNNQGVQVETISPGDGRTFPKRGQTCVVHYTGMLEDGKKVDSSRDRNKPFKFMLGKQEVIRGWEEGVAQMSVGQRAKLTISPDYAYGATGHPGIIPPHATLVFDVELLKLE
T1 sequence (Q8C7D2 whole entry): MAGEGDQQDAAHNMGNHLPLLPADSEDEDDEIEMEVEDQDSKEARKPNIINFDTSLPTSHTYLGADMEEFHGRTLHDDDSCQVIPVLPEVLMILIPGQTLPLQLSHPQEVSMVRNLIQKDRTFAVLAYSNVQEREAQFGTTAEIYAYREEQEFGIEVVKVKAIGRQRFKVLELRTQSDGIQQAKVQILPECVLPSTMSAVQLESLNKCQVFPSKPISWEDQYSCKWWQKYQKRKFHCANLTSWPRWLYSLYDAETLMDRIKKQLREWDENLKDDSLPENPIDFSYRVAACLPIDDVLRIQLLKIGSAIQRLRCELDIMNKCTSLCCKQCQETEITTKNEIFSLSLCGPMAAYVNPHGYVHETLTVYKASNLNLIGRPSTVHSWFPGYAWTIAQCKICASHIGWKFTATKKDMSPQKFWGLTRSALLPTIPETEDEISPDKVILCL
T1 sequence (Q3U1J4 whole entry partner): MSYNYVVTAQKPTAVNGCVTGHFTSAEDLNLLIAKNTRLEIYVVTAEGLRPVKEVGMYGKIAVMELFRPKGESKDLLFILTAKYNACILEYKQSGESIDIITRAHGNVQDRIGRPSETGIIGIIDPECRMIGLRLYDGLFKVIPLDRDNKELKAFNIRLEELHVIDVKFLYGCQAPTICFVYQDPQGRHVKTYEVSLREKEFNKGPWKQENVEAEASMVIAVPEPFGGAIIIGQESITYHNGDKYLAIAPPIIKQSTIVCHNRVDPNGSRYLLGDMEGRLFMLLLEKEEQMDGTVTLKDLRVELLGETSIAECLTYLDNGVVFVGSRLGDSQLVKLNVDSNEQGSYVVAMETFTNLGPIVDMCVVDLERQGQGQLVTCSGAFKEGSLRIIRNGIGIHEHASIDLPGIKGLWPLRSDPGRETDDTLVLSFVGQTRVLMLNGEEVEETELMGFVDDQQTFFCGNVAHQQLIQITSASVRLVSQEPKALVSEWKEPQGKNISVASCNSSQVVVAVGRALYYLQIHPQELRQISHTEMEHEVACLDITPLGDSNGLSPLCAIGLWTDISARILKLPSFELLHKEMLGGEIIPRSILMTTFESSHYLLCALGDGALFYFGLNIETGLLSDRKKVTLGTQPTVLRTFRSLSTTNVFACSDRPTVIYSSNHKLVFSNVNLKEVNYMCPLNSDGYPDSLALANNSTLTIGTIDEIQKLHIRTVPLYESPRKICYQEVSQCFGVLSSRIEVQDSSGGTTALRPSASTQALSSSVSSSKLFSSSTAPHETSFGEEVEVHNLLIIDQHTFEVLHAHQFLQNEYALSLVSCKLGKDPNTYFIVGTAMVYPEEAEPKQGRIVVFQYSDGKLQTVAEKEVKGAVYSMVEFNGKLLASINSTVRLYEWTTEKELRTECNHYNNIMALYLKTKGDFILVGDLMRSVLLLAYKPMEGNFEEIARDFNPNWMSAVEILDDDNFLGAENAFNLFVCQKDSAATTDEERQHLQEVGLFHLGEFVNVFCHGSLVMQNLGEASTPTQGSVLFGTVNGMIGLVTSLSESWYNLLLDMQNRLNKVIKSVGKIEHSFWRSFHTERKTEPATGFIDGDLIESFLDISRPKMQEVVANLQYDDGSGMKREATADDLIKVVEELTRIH
Chain of HA-tagged YY1 (P25490 whole entry): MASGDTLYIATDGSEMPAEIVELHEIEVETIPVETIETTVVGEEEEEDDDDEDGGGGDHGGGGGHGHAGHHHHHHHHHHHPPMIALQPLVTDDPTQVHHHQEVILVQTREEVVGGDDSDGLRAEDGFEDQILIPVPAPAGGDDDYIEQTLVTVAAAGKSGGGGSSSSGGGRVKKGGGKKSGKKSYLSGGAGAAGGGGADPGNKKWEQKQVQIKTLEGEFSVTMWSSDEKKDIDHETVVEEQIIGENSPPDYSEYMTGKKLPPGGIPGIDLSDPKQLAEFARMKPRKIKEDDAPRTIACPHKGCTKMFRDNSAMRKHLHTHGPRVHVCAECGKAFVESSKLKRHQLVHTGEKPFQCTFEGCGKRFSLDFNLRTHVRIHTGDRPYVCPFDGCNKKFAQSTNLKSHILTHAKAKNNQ

CC[C@H](C(=O)N1CCCC[C@H]1C(=O)O[C@H](CCc1ccc(OC)c(OC)c1)c1ccccc1OCC(=O)NCCCCCCCCNc1ccc2c(c1)C(=O)N(C1CCC(=O)NC1=O)C2=O)c1cc(OC)c(OC)c(OC)c1 (stereo partly drawn) [dTAG-47, (2S)-(1R)-3-(3,4-dimethoxyphenyl)-1-(2-(2-((8-((2-(2,6-dioxopiperidin-3-yl)-1,3-dioxoisoindolin-5-yl)amino)octyl)amino)-2-oxoethoxy)phenyl)propyl 1-((S)-2-(3,4,5-trimethoxyphenyl)butanoyl)piperidine-2-carboxylate]
YY1 protein degradation ([1]; FKBP degron tag knocked-in to both alleles of Yy1, mES cells, 24 hours treatment): rapid proteasome-mediated degradation | washout time allowing recovery of YY1 protein levels ([1]; after 24 hours treatment at 500 nM, drug withdrawal): 5 days | enhancer-promoter interactions after YY1 degradation (H3K27ac HiChIP) ([2]; treated): loss in enhancer-promoter interactions | enhancer-promoter interactions after washout and recovery of YY1 levels (H3K27ac HiChIP) ([2]; washout): substantial increase in enhancer-promoter interactions

FLAG-tagged YY1
reduction in the amount of co-immunoprecipitated YY1 partner protein after RNase A treatment (HA-tagged YY1): 60%

bovine serum albumin (BSA): control protein in the DNA circularization assay
rate of DNA circularization [3]: did not increase the rate of DNA ligation

B1: competing 200 base pair DNA fragment: 200 base pair DNA fragment containing the YY1 consensus binding sequence, SEQ ID NO: 28 (nucleic acid)
DNA: GAGCAACAACAACAACGAACCGGTTCGACCTCCCCGGCCATCTTTCGACCTCCCCGGCCATCTTTCGACCTCCCCGGCCATCTTTCGACCTCCCCGGCCATCTTTCGACCTCCCCGGCCATCTTTCGACCTCCCCGGCCATCTTTCGACCTCCCCGGCCATCTTTCGACCTCCCGTCGACAGAGGCAGCAAAAGCCAGA
modifications: competitor DNA
rate of DNA circularization [3]: abrogated circularization

Source: patent US11873496B2, “Methods of altering gene expression by perturbing transcription factor multimers that structure regulatory loops” (Whitehead Institute for Biomedical Research, priority 2017, dated 2024)
